Measured values as given in PubChem BioAssay (NCI).
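Step 1: Grow cells in 96-well plates. Step 2: Expose to compound for 48 hours at 5 concentrations. Step 3: Interpolate endpoints linearly; if unreached, use highest concentration. Definition used: TGI = concentration required for complete inhibition of growth.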

What was measured:
Assay in all cases: NCI anticancer screen, dose series, 48 h
ACHN renal = tested on: ACHN renal
NCI-H460 lung = tested on: NCI-H460 lung
SF-295 CNS = tested on: SF-295 CNS
COLO 205 colon = tested on: COLO 205 colon
NCI/ADR-RES ovarian = tested on: NCI/ADR-RES ovarian
HCT-15 colon = tested on: HCT-15 colon
HL-60(TB) leukemia = tested on: HL-60(TB) leukemia
LOX IMVI melanoma = tested on: LOX IMVI melanoma
UACC-62 melanoma = tested on: UACC-62 melanoma
MDA-N = tested on: MDA-N
A549 NSCLC = tested on: A549 NSCLC
MALME-3M melanoma = tested on: MALME-3M melanoma
UO-31 renal = tested on: UO-31 renal
OVCAR-5 ovarian = tested on: OVCAR-5 ovarian
M14 melanoma = tested on: M14 melanoma
SW-620 colon = tested on: SW-620 colon
SNB-75 CNS = tested on: SNB-75 CNS
SF-539 CNS = tested on: SF-539 CNS
RXF 393 renal = tested on: RXF 393 renal

SMILES	TGI (ACHN renal) [µM]	TGI (NCI-H460 lung) [µM]	TGI (SF-295 CNS) [µM]	TGI (COLO 205 colon) [µM]	TGI (NCI/ADR-RES ovarian) [µM]	TGI (HCT-15 colon) [µM]	TGI (HL-60(TB) leukemia) [µM]	TGI (LOX IMVI melanoma) [µM]	TGI (UACC-62 melanoma) [µM]	TGI (MDA-N) [µM]	TGI (A549 NSCLC) [µM]	TGI (MALME-3M melanoma) [µM]	TGI (UO-31 renal) [µM]	TGI (OVCAR-5 ovarian) [µM]	TGI (M14 melanoma) [µM]	TGI (SW-620 colon) [µM]	TGI (SNB-75 CNS) [µM]	TGI (SF-539 CNS) [µM]	TGI (RXF 393 renal) [µM]
Cc1ccc(C2SCC(=O)N2c2ccc(-c3ccc(-n4c(-c5ccccc5)nc5ccccc5c4=O)cc3)cc2)cc1 (configuration not stated)	> 100	> 100	> 100	> 100	> 100	> 100	> 100	> 100	> 100	> 100	> 100	> 100	> 100	> 100	> 100	> 100	–	–	–
CC(C)OP(=O)(OC(C)C)c1ccc2c(c1)OCCOCCOCCOCCO2	> 100	> 100	> 100	> 100	–	> 100	> 100	> 100	> 100	> 100	> 100	> 100	> 100	–	> 100	> 100	> 100	> 100	–
CCOP(=O)(Nc1ccccc1P(=O)(OCC)OCC)OCC	> 100	> 100	> 100	> 100	> 100	> 100	–	–	> 100	> 100	> 100	> 100	> 100	> 100	> 100	> 100	> 100	–	> 100
Cc1ccc(Nc2[nH]c(=O)[nH]c(=O)c2C)cc1Cl	> 100	> 100	72.3	> 100	> 100	> 100	–	> 100	> 100	> 100	> 100	> 100	> 100	> 100	> 100	> 100	> 100	> 100	> 100
CC1(C)OCC(C2OC(OC(=O)c3ccc([N+](=O)[O-])cc3)C3OC(C)(C)OC23)O1 (configuration not stated)	> 100	> 100	> 100	> 100	> 100	> 100	–	> 100	> 100	> 100	> 100	> 100	> 100	> 100	> 100	> 100	54.3	> 100	> 100
CSc1cc(Br)ccc1-n1c(C(=O)c2ccccc2)c(SC)n(-c2ccccc2)c1=O	> 100	> 100	> 100	> 100	> 100	> 100	–	> 100	> 100	> 100	> 100	–	> 100	> 100	> 100	> 100	> 100	> 100	–
COc1cccc(CCNc2c(C#N)c3nc4ccccc4n3c3ccccc23)c1	> 100	> 100	> 100	> 47.4	–	> 100	> 100	> 100	> 100	–	> 100	> 100	> 100	> 100	> 100	> 100	> 58	> 100	> 100
CC(=O)Nc1ccc(-c2nc3ccccc3s2)cc1C	> 100	> 100	> 100	> 100	> 100	> 100	> 100	> 100	> 100	–	–	–	> 100	–	> 100	> 100	> 100	> 100	> 100
O=C(OC[C@H]1C[C@H]2C(=O)CCC[C@H]2O1)c1ccccc1	> 100	> 100	> 100	> 100	> 100	> 100	> 100	> 100	> 100	> 100	> 100	–	> 100	> 100	> 100	> 100	> 100	> 100	–
CCN1C(=O)/C(=C2\SC(c3ccccc3)(c3ccccc3)c3ccccc32)SC1=S	> 100	> 100	> 100	> 100	> 100	> 100	–	> 100	> 100	> 100	> 100	> 100	> 100	> 100	> 100	–	> 100	> 100	> 100
Cc1c(/C=N/NC(=S)Nc2ccccc2)c(=O)n(-c2ccccc2)n1C	> 100	> 100	> 100	> 100	> 100	> 100	> 100	> 100	> 100	–	–	–	> 100	–	> 100	> 100	> 100	> 100	> 100
COC(=O)C(C(=O)C(=O)Nc1ccccc1C#N)c1nc2ccc([N+](=O)[O-])cc2[nH]c1=O (configuration not stated)	> 100	> 100	> 100	> 100	> 100	> 100	–	> 100	> 100	> 100	> 100	> 100	> 100	> 100	> 100	> 100	> 100	> 100	> 100
CCCCc1ccc(-n2sc3ncc([N+](=O)[O-])cc3c2=O)cc1	28	25.3	27	32.3	34.4	28.4	38	26.1	21.8	28	27.3	21.7	35.5	40.6	43.7	35.9	57.2	39.7	–
